Laboratory results taken from patent publication US20220193209A1, “COMPOSITIONS AND METHODS FOR REACTIVATING LATENT IMMUNODEFICIENCY VIRUS AND/OR TREATING IMMUNODEFICIENCY VIRUS INFECTION” (The J. David Gladstone institutes, a testamentary trust …, priority 2019, published 2022).

Columns and labels:
Smyd2 = Smyd2 (Homo sapiens, UniProt Q9NRG4); settings: SMYD2, substrate competitive; cited from earlier work
HIV LTR = assay: Chromatin immunoprecipitation (ChIP) at the HIV LTR in J-Lat cells; format: cell-based, HIV-1
Protocol: J-Lat A2 and A72 cells were treated with TNFα (10 ng/ml) for 18 h. Cells were fixed with 1% formaldehyde (v/v) in fixation buffer (1 mM EDTA, 0.5 mM EGTA, 50 mM Hepes, pH 8.0, 100 mM NaCl), and fixation was stopped after 10 min by addition of glycine to 125 mM. The cell membrane was lysed for 15 min on ice (5 mM Pipes, pH 8.0, 85 mM KCl, 0.5% NP40, protease inhibitors). After washing with nuclear swell buffer (25 mM HEPES, pH 7.5, 4 mM KCl, 1 Mm DTT, 0.5% NP-40, 0.5 mM PMSF) and micrococcal nuclease (MNase) digestion buffer (20 mM Tris pH 7.5, 2.5 mM CaCl2), 5 mM NaCl, 1 mM DTT, 0.5% NP-40), the pellet was resuspended in MNase buffer (15 mM Tris-HCl, pH 7.5, 5 mM MgCl2, 1 mM CaCl2), and 25 mM NaCl). Subsequently, samples were incubated with MNase (New England Biolabs) for 10 min at RT. The reaction was quenched with 0.5 M EDTA and incubated on ice for 5 min. Cells were lysed (1% SDS, 10 mM EDTA, 50 mM Tris-HCl, pH 8.1, protease inhibitors), and chromatin DNA was sheared to 200-1000-bp average size through sonication (Ultrasonic Processor CP-130, Cole Parmer). Cellular debris was pelleted, and the supernatant was recovered. Protein A/G Sepharose beads were blocked with single-stranded salmon sperm DNA and BSA, washed and resuspended in immunoprecipitation buffer. Blocked protein A/G Sepharose beads were added to the digested chromatin fractions and rotated at 4° C. for 2 h to preclear chromatin. Lysates were incubated overnight at 4° C. with 5 μg of FOXO1, RelA, histone H4, H4K20me1, H4K20me2, H4K20me3 antibodies, or IgG control. After incubation with protein A/G agarose beads for 2 h and washing three times with low salt buffer (0.1% SDS, 1% Triton X-100, 2 mM EDTA, 20 mM Tris-HCl, pH 8.1, 150 mM NaCl), one time with high salt buffer (0.1% SDS, 1% Triton X-100, 2 mM EDTA, 20 mM Tris-HCl, pH 8.1, 500 mM NaCl) and twice with TE-buffer (1 mM EDTA, 10 mM Tris-HCl, pH 8.1), chromatin was eluted and recovered with Agencourt AMPure XP beads (Beckman Coulter). Bound chromatin and input DNA were treated with RNase H (New England Biolabs) and Proteinase K (Sigma-Aldrich) at 37° C. for 30 min. Immunoprecipitated chromatin was quantified by real-time PCR using the Maxima SYBR Green qPCR Master Mix (Thermo Scientific) and the ABI 7700 Sequence Detection System (Applied Biosystems). The SDS 2.4 software (Applied Biosystems) was used for analysis. The specificity of each PCR reaction was confirmed by melting curve analysis using the Dissociation Curve software (Applied Biosystems). All chromatin immunoprecipitations and qPCRs were repeated at least three times, and representative results were shown.
Because ATF4 can be recruited to the HIV LTR (Jiang, G. et al. Downloaded from. MBio 8, 1518-1534 (2018)) and the related human T-cell leukemia virus type 1 (HTLV-1) Reddy, T. et al. Oncogene 14, 2785-2792 (1997)), chromatin immunoprecipitation (ChIP) experiments were performed to test whether ATF4 binds the HIV LTR in response to FOXO1 inhibition. While low levels of ATF4 bound HIV LTR chromatin in untreated J-Lat cells, its recruitment was 3-fold enriched after AS1842856 treatment (FIG. 9, Panel A). […] The nuclear factor of activated T cells (NFAT) can occupy the NF-κB binding sites in the HIV LTR, and is activated through calcium mobilization after T cell activation rather than protein kinase C activation as for NF-κB. […]

[1] = test system: latent HIV-1 provirus in J-Lat cells; assay: HIV-GFP reactivation in J-Lat cell lines (RT-qPCR, FACS); format: cell-based; settings: for effect on TNFα-mediated HIV reactivation: with 10 ng/mL TNFα (24 h); for effect on AS1842856-induced HIV reactivation: with 1000 nM AS1842856 (72 h); for HIV-1 reactivation (HIV-GFP): ER stress inducers, 24, 48 and 72 h
Protocol: Total RNA from samples was extracted using the Direct-zol RNA kit (R2060; Zymogen). cDNA was generated using 500 ng for CD4^+ T cells or 1000 ng of total RNA for J-Lats with Superscript III Reverse transcription (18080-044; ThermoFisher) and oligo(dT) (18418-012; ThermoFisher). Quantitative RT-PCR was carried out using Maxima SYBR Green qPCR Master Mix (Thermo Scientific) on SDS 2.4 software (Applied Biosystems) in a total volume of 12 μL. The SYBR green qPCR reactions contained 5 μl of 2× Maxima SYBR green/Rox qPCR Master Mix (K0221; ThermoFisher), 5 μl of diluted cDNA, and 1 nmol of both forward and reverse primers. The reactions were run using the following conditions: 50° C. for 2 min and 95° C. for 10 min, followed by 40 cycles of 95° C. for 5 s and 62° C. for 30 s. See Table 1 below for a qRT-PCR primer list. […] Dissociation curve analysis was performed after the end of the PCR to confirm the presence of a single and specific product. All qPCRs were independently repeated at least three times, averaged and compared using standard deviation (±SD).
The J-Lat clonal cell lines are Jurkat cells that contain a stably integrated, latent HIV-1 (HXB) Δenv provirus with a GFP reporter gene in place of the nef gene (Jordan, A. et al. EMBO J. 22, 1868-1877 (2003)). In this system, reactivation from established latency can be monitored through GFP expression.
HIV-GFP mRNA reactivation was assessed by RT-qPCR and normalized to RPL13A mRNA. Data represent average SD of three independent experiments. p-value relative to the control at each time point. FIG. 3, Panel B, depicts cell viability assessed by flow cytometry at 72 h of the same experiment as in A. Cell viability was measured by gating on both the live population at the forward scatter (FSC) and side scatter (SSC) plot and then the viable cells after staining with the viability dye. […] HIV-GFP reactivation (bars) and cell viability (dots) were analyzed by FACS. HIV-GFP reactivation is reported as a percentage of GFP-expressing cells (% GFP+ cells). Data represent average f SD of at least three independent experiments. FIG. 3, Panel D, depicts the same experiments as in FIG. 3, Panel C, but performed in different J-Lat cell lines 5A8, 6.3, 11.1 and 15.4. Data represent average f SD of at least three independent experiments. 10 ng/mL TNFα was used as control. […] Calculation of synergy for drug combinations using the Bliss independence model applied to the HIV-GFP reactivation measured as a percentage of GFP-expressing cells (% GFP+ cells).
Chromatin was prepared from J-Lat A2 and 5A8 cells, in which the LTR was stimulated by 1000 nM AS1842856 treatment, TNFα or which were left untreated/DMSO. […] HIV-GFP reactivation was analyzed by FACS and relativized to the control condition. […] Data represent average SD of 3-6 independent experiments. […] HIV-GFP reactivation was analyzed by FACS. […] HIV-GFP reactivation and cell viability were analyzed by FACS. Data were mean±SD of three independent experiments.

J-Lat cells = assay: Cell viability of J-Lat cells by flow cytometry; format: cell-based; settings: J-Lat
Protocol: FIG. 3, Panel A, depicts results of treatment of a J-Lat cell line 5A8 with increasing concentrations (1-10000 nM) of AS1842856 for 24, 48 and 72 h. HIV-GFP mRNA reactivation was assessed by RT-qPCR and normalized to RPL13A mRNA. Data represent average SD of three independent experiments. p-value relative to the control at each time point. FIG. 3, Panel B, depicts cell viability assessed by flow cytometry at 72 h of the same experiment as in A. Cell viability was measured by gating on both the live population at the forward scatter (FSC) and side scatter (SSC) plot and then the viable cells after staining with the viability dye. FIG. 3, Panel C, depicts results of treatment of J-Lat cell lines A2 and A72 with increasing concentrations of AS1842856 for 24, 48 and 72 h. HIV-GFP reactivation (bars) and cell viability (dots) were analyzed by FACS. HIV-GFP reactivation is reported as a percentage of GFP-expressing cells (% GFP+ cells). Data represent average f SD of at least three independent experiments. FIG. 3, Panel D, depicts the same experiments as in FIG. 3, Panel C, but performed in different J-Lat cell lines 5A8, 6.3, 11.1 and 15.4. Data represent average f SD of at least three independent experiments. 10 ng/mL TNFα was used as control. FIG. 3 Panel E depicts results of treatment of J-Lat cell lines 5A8, 6.3, 11.1 and 15.4 for 72 h with increasing concentrations of both AS1842856 (Y-axis) and TNFα (X-axis) alone or in combination and analyzed by FACS. Calculation of synergy for drug combinations using the Bliss independence model applied to the HIV-GFP reactivation measured as a percentage of GFP-expressing cells (% GFP+ cells).
FIG. 10, Panels A-F depict results of a J-Lat cell line 5A8 treated with different concentrations of inhibitors. FIG. 10, Panel A, depicts results for a J-Lat cell line A58 that was treated with increasing concentrations of A-92 (GCN2 inhibitor) in combination with 1000 nM AS1842856 (72 h) or 10 ng/mL TNFα (24 h). HIV-GFP reactivation was analyzed by FACS and relativized to the control condition. Histogram plots of percent live cells for each drug treatment are shown. FIG. 10, Panel B, depicts the same experiment as in FIG. 10, Panel A, but cells were treated with increasing concentrations of PKR inhibitor (PKRi). Histogram plots representing viability are also shown. Data are represented by mean±SD of three different […]. […] FIG. 10, Panel D, depicts a J-Lat cell line A58 that was treated with increasing concentrations of Ionomycin (0.01, 0.1, 0.5, 1 μM) for 24, 48 and 72 hr. HIV-GFP reactivation and cell viability were analyzed by FACS. FIG. 10, Panel E, depicts a J-Lat cell line 5A8 that was treated for 72 h with increasing concentrations of both Fenretinide (Y-axis) and Ionomycin (X-axis) alone or in combination and analyzed by FACS. HIV-GFP reactivation is reported as a percentage of GFP-expressing cells (% GFP+ cells). FIG. 10, Panel F, depicts a J-Lat cell line 5A8 that was also treated for 72 h with increasing concentrations of both Thapsigargin (Y-axis) and Cyclosporin A (X-axis) alone or in combination and analyzed by FACS. HIV-GFP reactivation is again reported as a percentage of GFP-expressing cells (% GFP+ cells).

Sequence of Smyd2 (Q9NRG4 whole entry, species assumed): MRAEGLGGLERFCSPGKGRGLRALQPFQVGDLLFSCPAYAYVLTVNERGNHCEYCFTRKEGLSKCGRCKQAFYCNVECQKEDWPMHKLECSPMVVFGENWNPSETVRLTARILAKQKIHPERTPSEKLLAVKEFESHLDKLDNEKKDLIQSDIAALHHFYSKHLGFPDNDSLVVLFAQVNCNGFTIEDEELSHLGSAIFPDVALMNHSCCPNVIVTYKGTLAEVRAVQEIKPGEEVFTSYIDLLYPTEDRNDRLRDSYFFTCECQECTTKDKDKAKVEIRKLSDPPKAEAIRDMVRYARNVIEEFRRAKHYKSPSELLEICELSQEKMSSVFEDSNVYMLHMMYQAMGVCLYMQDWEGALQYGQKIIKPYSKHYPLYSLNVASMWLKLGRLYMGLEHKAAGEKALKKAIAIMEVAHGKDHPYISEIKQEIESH

## N#Cc1cc(C(=O)NCCCN2CCCC2)cc(-c2ccccc2N2CCN(CCc3c[nH]c4ccccc34)CC2)c1 [AZ391]
Smyd2
  IC50: 62 nM

## TNFα
HIV LTR
  RelA recruitment to the HIV LTR: significantly enriched
[1]; J-Lat 5A8, GFP mRNA
  time of maximal activation: 24 h
[1]; four J-Lat clonal cell lines, as early as 24 hours
  GFP expression: induced GFP expression

## Cc1cccc(CC(=O)N2CCc3c2ccc(-c2cn(C)c4ncnc(N)c24)c3F)n1 [PERK inhibitor]
[1]; J-Lat
  effect on TNFα-mediated HIV reactivation: not affected
  effect on AS1842856-induced HIV reactivation: reduced
[1]; J-Lat, with 1000 nM AS1842856
  suppression of AS1842856-mediated HIV reactivation: ~50%

## C/C=C(/C)C(=O)O[C@H]1C(C)=C2[C@H]([C@@H]1OC(=O)CCCCCCC)[C@@](C)(OC(C)=O)C[C@H](OC(=O)CCC)[C@@]1(O)[C@H]2OC(=O)[C@@]1(C)O [thapsigargin]
[1]; J-Lat
  HIV-1 reactivation (HIV-GFP): HIV-1 reactivation
J-Lat cells; ER stress inducers
  cellular toxicity: dose-dependent levels of cellular toxicity

## C[C@H]1CCC/C=C/[C@@H]2C[C@H](O)C[C@H]2[C@H](O)/C=C/C(=O)O1 [Brefeldin A]
[1]; J-Lat
  HIV-1 reactivation (HIV-GFP): HIV-1 reactivation
J-Lat cells; ER stress inducers
  cellular toxicity: dose-dependent levels of cellular toxicity

## O=C1Nc2ccc3ncsc3c2/C1=C/c1cnc[nH]1 [PKR inhibitor]
[1]; J-Lat
  effect on TNFα-mediated HIV reactivation: diminished
  effect on AS1842856-induced HIV reactivation: not

## CC1=C(/C=C/C(C)=C/C=C/C(C)=C/C(=O)Nc2ccc(O)cc2)C(C)(C)CCC1 [fenretinide]
[1]; J-Lat
  HIV-1 reactivation (HIV-GFP): best reactivation
J-Lat cells; ER stress inducers
  cellular toxicity: dose-dependent levels of cellular toxicity
J-Lat cells; fenretinide 0.5 μM, alone or with ionomycin
  cellular toxicity: nontoxic
